Results as given in patent publication US5684026A, “Aminocyclopentane derivative” (priority 1994, dated 1997).

Tests used:
[1] = biological target: T1, α-glucosidase I (Baker's yeast) (Saccharomyces cerevisiae, UniProt P53008); assay: Inhibitory activity on α-glucosidase I (Ki); assay type: biochemical; conditions: α-glucosidase I, substrate 0.25-4.0 mM, 37° C., 1 hour; read-out: Ki
T1 construct: made in house; host or cells: Baker's yeast (native enzyme, prepared by the cited method)
T1 sequence (P53008 25-833 limits assumed): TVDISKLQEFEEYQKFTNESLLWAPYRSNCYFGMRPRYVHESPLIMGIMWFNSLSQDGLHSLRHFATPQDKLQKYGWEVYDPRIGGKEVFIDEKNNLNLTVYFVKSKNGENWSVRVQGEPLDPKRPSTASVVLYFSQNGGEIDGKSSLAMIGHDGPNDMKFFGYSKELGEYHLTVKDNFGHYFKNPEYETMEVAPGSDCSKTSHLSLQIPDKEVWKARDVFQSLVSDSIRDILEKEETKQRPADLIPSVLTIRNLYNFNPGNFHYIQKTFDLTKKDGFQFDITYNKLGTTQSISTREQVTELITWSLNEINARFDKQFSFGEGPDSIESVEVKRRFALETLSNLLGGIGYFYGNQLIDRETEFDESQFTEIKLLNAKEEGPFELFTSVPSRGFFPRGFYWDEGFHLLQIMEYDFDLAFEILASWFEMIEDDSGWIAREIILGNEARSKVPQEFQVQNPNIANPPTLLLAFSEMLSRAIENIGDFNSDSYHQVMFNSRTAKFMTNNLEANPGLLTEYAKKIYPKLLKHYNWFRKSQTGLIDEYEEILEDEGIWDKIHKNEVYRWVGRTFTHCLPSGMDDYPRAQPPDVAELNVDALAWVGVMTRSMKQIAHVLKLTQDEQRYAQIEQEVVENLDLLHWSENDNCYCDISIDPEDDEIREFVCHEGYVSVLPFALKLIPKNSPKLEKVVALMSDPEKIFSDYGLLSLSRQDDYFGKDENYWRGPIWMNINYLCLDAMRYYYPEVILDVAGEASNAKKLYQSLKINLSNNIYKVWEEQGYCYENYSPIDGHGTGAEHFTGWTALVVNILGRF
Method: The α-glucosidase I (Baker's yeast) and its substrate (α-D-Glcl→2α-D-Glcl→3α-D-Glc-O(CH2)6 COOCH3) employed herein were prepared in accordance with the method of I. Neverova et al., Anal. Biochem., 222, 190-196 (1994).
The following measurements were performed by the methods described in this literature.
Namely, 25 μl of a buffer solution containing α-glucosidase I was added to a microtube containing the above-mentioned sample and the substrate (α-D-Glcl→2α-D-Glcl→3α-D-Glc-O(CH2)6 COOCH3). After incubating at 37° C. for 1 hour, a 1.25M tris hydrochloride buffer solution (pH 7.6, 25 μl) was added to thereby cease .the reaction. Then the reaction mixture was transferred onto a microplate followed by the addition of 250 μl of a reaction buffer solution [developing solution; 1M tris hydrochloride buffer solution (pH 7.2) containing glucose oxidase (5 units/ml, manufactured by Sigma), horseradish peroxidase (1 purpurogallin units, manufactured by Sigma) and o-dianisidine dihydrochloride (40 μg/ml)]. Then the mixture was incubated at 37° C. for 30 minutes or until an increase in the absorbance attained a plateau. Then the absorbance (A450-650) of the o-dianisidine formed and oxidized by this enzyme reaction was measured. As a blank, the above reaction was repeated but adding neither the above-mentioned sample nor substrate and the absorbance was measured. Also, the above-mentioned reaction buffer solution was added to D-glucose of a known concentration and the resulting mixture was incubated followed by the measurement of the absorbance to thereby examine a relationship between D-glucose concentration and absorbance. Each measurement was effected in two wells at the same time.
Based on the above-mentioned relationship between D-glucose concentration and absorbance, the amount of glucose liberated from the substrate due to the enzyme reaction of α-glucosidase I in the presence of the sample was determined. From the result thus obtained, Km was determined and then Ki was determined from the sample amount and the Km value.

[2] = biological target: T2, α-Glucosidase (Baker's yeast, EC 3.2.1.20) (Saccharomyces cerevisiae, UniProt P53341); assay: α-Glucosidase enzyme inhibition assay (p-nitrophenyl α-D-glucopyranoside); assay type: biochemical; conditions: compared with deoxynojirimycin; summary of Tables 1 and 2
T2 construct: purchased Sigma; host or cells: Baker's yeast
Method: By using a 96-well microplate, the absorbance (at 405 nm) of liberated p- or o-nitrophenol was measured with a microplate reader (MPR-4Ai, manufactured by Tosoh Corporation).
Incubation was carried out at 37° C. by using a natural incubator (Compact NIB-10, manufactured by Iwaki Glass Co., Ltd.).
The enzymes employed herein [α-glucosidase (Baker's yeast), β-glucosidase (Almonds), α-galactosidase (E. coli), β-galactosidase (E. coli) and β-galactosidase (Bovine Liver)] were all purchased from Sigma.
The substrates (p- or o-nitrophenylglycoside) of these enzymes were all purchased from Sigma.
1) α-Glucosidase (Baker's yeast, EC 3.2.1.20) [described in H. Halvorson and L. Ellias, Biochim. Biophys. Acta, 30, 28-40 (1958)]
Into each well were introduced an aqueous solution of a sample (1 μl), a 0.66 mM solution of p-nitrophenyl α-D-glucopyranoside in a buffer (98 μl) and a (0.4 mg/ml) enzyme solution in the buffer (1 μl) to give a total volume of 100 μl. After incubating at 37° C. for 30 minutes, the reaction was ceased by adding a 1M aqueous solution of sodium carbonate (100 μl). Then the absorbance (A405) of p-nitrophenol liberated by this enzyme reaction was measured. To give the blank absorbance (Ablank), the sample (1 μl) and the substrate (99 μl) were incubated in the same manner and an aqueous solution of sodium carbonate (100 μl) was added followed by the measurement of the absorbance. […] The sample at each concentration, the blank and the control were treated each in two wells at the same time. As the buffer, a 0.1M phosphate buffer solution (pH 6.8, prepared from KH2 PO4 and K2 HPO4) was employed.

T2 sequence (P53341 whole entry): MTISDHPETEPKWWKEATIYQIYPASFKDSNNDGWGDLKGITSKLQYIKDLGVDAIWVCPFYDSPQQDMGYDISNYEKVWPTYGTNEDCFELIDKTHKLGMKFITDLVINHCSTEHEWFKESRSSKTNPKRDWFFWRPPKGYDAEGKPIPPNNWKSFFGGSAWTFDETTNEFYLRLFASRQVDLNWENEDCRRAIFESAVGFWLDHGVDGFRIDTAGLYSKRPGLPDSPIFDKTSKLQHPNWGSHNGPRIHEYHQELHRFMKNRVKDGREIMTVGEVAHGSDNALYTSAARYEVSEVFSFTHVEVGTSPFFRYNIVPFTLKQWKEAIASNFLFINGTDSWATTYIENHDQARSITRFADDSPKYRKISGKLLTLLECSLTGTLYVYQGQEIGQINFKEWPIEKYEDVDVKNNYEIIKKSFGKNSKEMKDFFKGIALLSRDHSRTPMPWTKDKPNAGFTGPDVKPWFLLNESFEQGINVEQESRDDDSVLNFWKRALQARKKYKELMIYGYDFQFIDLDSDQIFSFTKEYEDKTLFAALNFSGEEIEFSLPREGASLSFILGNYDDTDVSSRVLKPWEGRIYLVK

`OC[C@@]12OC(Nc3ccccc3)=N[C@@H]1[C@H](O)[C@@H](O)[C@@H]2O` [Compound 1-2L, (1S,5R,6S,7R,8S)-1-hydroxymethyl-3-phenylamino-2-oxa-4-azabicyclo[3.3.0]oct-3-ene-6,7,8-triol] was tested. Which Ki [1] did it give?
Its Ki is 51 µM.

What about the “inhibitory activity against α-glucosidase (in words)” value [2] of the same compound?
The value was “remarkably strong inhibitory activities”.
